Measured values reported in ChEMBL document CHEMBL1137476, “Synthesis of the A,B-ring-truncated OSW saponin analogs and their antitumor activities” (Bioorg Med Chem Lett, 2007).

Key:
HeLa = assay: Antitumor activity against HeLa cells; type: functional, cell-based; conditions: Homo sapiens
Jurkat = assay: Antitumor activity against Jurkat cells; type: functional, cell-based; conditions: Homo sapiens

| IC50 (HeLa) | IC50 (Jurkat) | Structure (SMILES) |
| --- | --- | --- |
| 0.8 µM | 21.1 µM | COc1ccc(C(=O)O[C@H]2[C@H](O[C@H]3[C@H](OC(C)=O)[C@@H](O[C@H]4C[C@H]5C[C@@H](O)CC[C@]5(C)[C@@]4(O)[C@@H](C)C(=O)OCC(C)C)OC[C@H]3O)OC[C@@H](O)[C@@H]2O)cc1 |
| 2.6 µM | 14.5 µM | COc1ccc(C(=O)O[C@H]2[C@H](O[C@H]3[C@H](OC(C)=O)[C@@H](O[C@H]4C[C@H]5C[C@@H](O)CC[C@]5(C)[C@@]4(O)[C@H](C)C(=O)OCC(C)C)OC[C@H]3O)OC[C@@H](O)[C@@H]2O)cc1 |
| 0.24 µM | 0.0013 µM | COc1ccc(C(=O)O[C@H]2[C@H](O[C@H]3[C@H](OC(C)=O)[C@@H](O[C@H]4C[C@H]5[C@@H]6CC=C7C[C@@H](O)CC[C@]7(C)[C@H]6CC[C@]5(C)[C@@]4(O)[C@H](C)C(=O)OCC(C)C)OC[C@H]3O)OC[C@@H](O)[C@@H]2O)cc1 |
| 14.9 µM | 8.9 µM | COc1ccc(C(=O)O[C@H]2[C@H](O[C@H]3[C@H](OC(C)=O)[C@@H](O[C@H]4C[C@H]5CCCC[C@]5(C)[C@@]4(O)[C@H](C)C(=O)OCC(C)C)OC[C@H]3O)OC[C@@H](O)[C@@H]2O)cc1 |
